The values that follow come from US6355682B1, “Treatment of acute renal failure by administration of N-acetylcysteine” (priority 2001, dated 2002).

Molecules are shown by their SMILES.

The assay concerns patients affected by acute renal failures. The assay can be described thus: Clinical case reports: N-acetycysteine given to patients with acute renal failure. Type of assay: in vivo, human.

As for `CC(=O)N[C@@H](CS)C(=O)O` [N-acetycysteine, N-acetylcysteine], the renal function result is “returned to normal” (Case No. 1: 10 mg/kg twice daily, over the next several days) and “returned to normal” (Case No. 2: 20 mg/kg every twelve hours, over the next seventy-two hours). Moreover, the “BUN and Creatinin” value is “the rise of BUN and Creatinin stopped” (Case No. 1: acute renal failure after cardiogenic shock, 600 mg in a 20% solution every twelve hours, the next day); “The rise in their BUN and Creatinin stopped” (Case No. 2: hypovolemic shock from acute pancreatitis, 20% solution, 20 mg/kg every twelve hours, values had risen to five times normal); “progressively declined” (Case No. 3: multi-organ failure after cardiac arrest, 20 mg/kg every twelve hours via nasogastric tube, over the next several days). Moreover, the need for dialysis result (Case No. 1: after N-acetycysteine treatment) is “Dialysis was no longer required”, the need for dialysis entry (Case No. 2: after N-acetycysteine treatment) was “Dialysis was no longer required” and the need for dialysis entry (Case No. 4: two weeks after onset of renal toxicity) is recorded as “dialysis was no longer required”. Also, the urine output result (Case No. 3: 20 mg/kg every twelve hours via nasogastric tube, before treatment less than 100 cc per day) is on record as “increased to the normal level” and the urine output entry (Case No. 4: 10 mg/kg every twelve hours, within several days) is reported as “returned to normal”. The compound further had a Creatinin clearance (Case No. 4: 10 mg/kg every twelve hours, two weeks after onset of renal toxicity, 11 ml/minute before treatment, normal for age above 65 ml/min) of 22 mL/min. The Bun/Creatinin result (Case No. 4: diabetic patient, acute renal failure under IV Vancomycin and Imipenim, 10 mg/kg every twelve hours, values had risen to five times normal) is given as “progressively declined”. For the same compound, the potassium level entry (Case No. 5: 20 mg/kg every twelve hours, within 24 hours, serum potassium 6.8 before admission) was “normalized”. Also, the urine volume entry (Case No. 5: deterioration of chronic renal failure after Ciprofloxacin, 20 mg/kg every twelve hours, within 24 hours) is “substantially increased”. The need for hemodialysis entry (Case No. 5: remained on 600 mg twice daily) is given as “no longer required any hemodialysis”.
